Measured values taken from patent publication US20250339441A1, “METHODS OF TREATING CANCER” (FOGHORN THERAPEUTICS INC., priority 2022, published 2025).

Tests used:
[1] = Phase 1 dose escalation clinical trial of Compound A, oral, in subjects with metastatic uveal melanoma; type: in vivo
Method: A Phase 1 dose escalation clinical trial of Compound A is conducted. The trial is primarily intended to determine the maximum tolerated dose (MTD) and/or recommended phase 2 dose of the compound when administered orally to subjects with metastatic uveal melanoma (UM).
In this ongoing study, Compound A has been administered at dose levels of 2.5 mg once a day (QD), 5 mg QD, 7.5 mg QD, and 10 mg QD to 17 subjects with metastatic UM. […] In evaluable subjects, myeloid differentiation and reduction in bone marrow and/or peripheral blasts have been observed.

[2] = Population PK model (nonlinear mixed-effects, two-compartment) of oral Compound A patient concentration vs. time data; type: in vivo, human
Method: A population PK model based on orally administered Compound A dosing data in a total of 10 patients with metastatic uveal melanoma (UM) and advanced hematologic malignancies (e.g., acute myeloid leukemia (AML)) was performed.
Nonlinear mixed-effects models were fitted to concentration vs. time data of FHD-286. Various compartmental models with linear elimination (1-, 2- and 3-compartment), absorption models, structures of omega on clearances, volumes and absorption parameters (diagonal and block) were developed to assess the PK of Compound A.
Overall, a two-compartment model with linear elimination, a zero-order oral absorption, and a lag time of absorption adequately characterized the concentration-time profiles of Compound A.
Exploratory analysis of covariate effects was performed with appropriate plots presenting relationships between the ETAs (e.g., values reflecting the difference between and individual's parameter value and that of the population) of PK parameters to identify any remaining covariate trends. […] Therefore a “Multiple Dose Effect” on CL was included in the model to account for this change over time.
No other covariates were included as part of the model.

[3] = final population PK model, oral, 10 patients

SMILES: COC[C@H](NC(=O)c1ccn(S(C)(=O)=O)c1)C(=O)Nc1nc(-c2cccc(N3C[C@@H](C)O[C@@H](C)C3)n2)cs1 [Compound A, N-(1-((4-(6-(2,6-dimethylmorpholino)pyridin-2-yl)thiazol-2-yl)amino)-3-methoxy-1-oxopropan-2-yl)-1-(methylsulfonyl)-1H-pyrrole-3-carboxamide]
- myeloid differentiation ([1]; in evaluable subjects): observed
- reduction in bone marrow and/or peripheral blasts ([1]; in evaluable subjects): observed
- dose limiting toxicity ([1]; one subject at the 7.5 mg QD dose level, improved with a dose hold): Grade 3 keratitis
- half-life (preliminary PK analysis) ([1]; oral 2.5, 5, 7.5, 10 mg QD, 17 subjects with metastatic UM, preliminary): long
- plasma concentrations of the compound versus dose ([1]; oral 2.5-10 mg QD, subjects with metastatic UM, preliminary): increase with increasing dose
- change in clearance (CL) over time ([2]; after multiple doses): reduction
- CL, Estimate [2, 3]: 4.07 L/h
- CLp, Estimate [2, 3]: 30.6 L/h
- Tlag, Estimate (lag time of absorption) [2, 3]: 0.452 h
- Vc, Estimate [2, 3]: 54.6 L
- Vd, Estimate [2, 3]: 165 L
- Dur, Estimate (zero-order oral absorption) ([2]; final population PK model, oral, 10 patients with metastatic UM and advanced hematologic malignancies): 1.77 h
